The source of these data is US8969410B1, “Pharmaceutical composition for alleviating or treating gout and uses thereof” (Industrial Technology Research Institute, priority 2013, dated 2015).

Common to all, as to format: in vivo
Experiment [1] deals with neutrophil cell (CD45+/Ly6G+ cells). Briefly: Mouse air pouch model of MSU-induced gout: neutrophil cell density in exudate by flow cytometry. Conditions: for AVERAGE VALUES (neutrophil cell density): Example 4, Table 3, topical paste 100 mg/mouse (5 mg actives total) 15 h prior to MSU, exudate 5 h after MSU; for INHIBITION RATE (neutrophils): Example 4, Table 3, vs blank control, topical paste 100 mg/mouse (5 mg actives total). The text has this: (§1) Mouse Air pouch model: this mouse model may be referenced to the methods and the experimental details as in the published article “Role of S100A8 and S100A9 in neutrophil recruitment in response to monosodium urate monohydrate crystals in the air-pouch model of acute gouty arthritis”, Arthritis Rheum 2003 August, 48(8):2310-20. The full content of such document as a whole is incorporated by reference herein and made a part of this specification.
(§2) Before the experiment, the mice are shaved to remove back hair. At day 0 sterile filtered air (2 ml/per mouse) is injected through 0.22 μm microfilter to the back of each mouse subcutaneously, so that a pseudosynovial cavity is formed in each mouse. At day 3, an air booster (3 ml/mouse) is again given to each mouse, so that the air pouch is maintained round. Later, the mice are weighed and grouped so that the average weight of the mice in each group is about the same. At day 6 monosodium urate (MSU) crystal suspension (5 mg in 2 ml/per mouse) is injected into the air pouch. Topical application of the paste (100 mg paste/per mouse) is administrated 15 hours prior to MSU stimulation. At a specific time (5 hours) after the injection of MSU, the mice were euthanized with an excess of carbon dioxide, 2 ml PBS per mouse is injected into the air pouch, and the air pouch is carefully cut to collect the exudate. The collected exudate is subjected to the centrifugation at 1,000 rpm, 4° C. for 5 minutes, and the supernatant is then placed in a 96-well plate and stored at −20° C. An ELISA kit (purchased from R&D Systems) is used to analyze the contents of IL-1β and IL-6 in the exudate. The precipitate is resuspended and reacted with 1 ml red blood cell lysis buffer (RBC lysis buffer) for one minute to remove the red blood cells, followed by adding 1 ml PBS to terminate the reaction, centrifuged at 1,000 rpm, 25° C. for 5 minutes, and the supernatant is discarded. The precipitate is then resuspended in 1 ml PBS as the cell suspension and the cell suspension is filtered by filter membrane (BD Falcon 100 μm Nylon filter strainer) and the filtered cell suspension is dispensed into several tubes (0.25 ml/tube) for subsequent cell counting or for labelling with various differentiation antigen markers (such as cluster of differentiation (CD) markers). The flow cytometry is used for cell counting of the various cells.
(§3) In order to investigate the anti-gout efficacy of AG02-RA1 and AG04-RA1, either used alone or in combination, the experiments are performed to test AG02-RA1 alone, AG04-RA1 alone and the combination (s) of AG02-RA1:AG04-RA1 in the ratio of 50:50 (Composition Nos. 1, 2 and 3 as shown in Table 1). […]
Background: In flow cytometry, cells or beads pass a laser one at a time.

The test system of experiment [2] is leukocyte cell (CD45+ cells). Description: Mouse air pouch model of MSU-induced gout: leukocyte cell density in exudate by flow cytometry. As to conditions: for AVERAGE VALUES (normalized leukocyte cell density): Example 4, Table 2, topical paste 100 mg/mouse (5 mg actives total) 15 h prior to MSU, exudate 5 h after MSU; for INHIBITION RATE (leukocytes): Example 4, Table 2, vs blank control, topical paste 100 mg/mouse (5 mg actives total) 15 h prior to MSU.
Description: as §1, §2, §3

The next experiment has as its system interleukin-6 (mIL-6). Description: Mouse air pouch model of MSU-induced gout: IL-6 in exudate by ELISA. As to conditions: Example 4, FIG. 4; topical paste 100 mg/mouse (5 mg actives total) 15 h prior to MSU; exudate 5 h after MSU.
Description: as §1
(§4) Before the experiment, the mice are shaved to remove back hair. At day 0 sterile filtered air (2 ml/per mouse) is injected through 0.22 μm microfilter to the back of each mouse subcutaneously, so that a pseudosynovial cavity is formed in each mouse. At day 3, an air booster (3 ml/mouse) is again given to each mouse, so that the air pouch is maintained round. Later, the mice are weighed and grouped so that the average weight of the mice in each group is about the same. At day 6 monosodium urate (MSU) crystal suspension (5 mg in 2 ml/per mouse) is injected into the air pouch. Topical application of the paste (100 mg paste/per mouse) is administrated 15 hours prior to MSU stimulation. At a specific time (5 hours) after the injection of MSU, the mice were euthanized with an excess of carbon dioxide, 2 ml PBS per mouse is injected into the air pouch, and the air pouch is carefully cut to collect the exudate. […]
(In general: An ELISA detects its analyte on a solid surface through an enzyme-linked reagent.)

A further experiment deals with interleukin-1β (mIL-1β). Description: Mouse air pouch model of MSU-induced gout: IL-1β in exudate by ELISA. As to conditions: Example 4, FIG. 3; topical paste 100 mg/mouse (5 mg actives total) 15 h prior to MSU; exudate 5 h after MSU.
Description: as §1, §4

With `C=C1C(=O)OC2/C=C(\C)CC3C=C(CC/C=C(\C)CCC12)C(=O)O3` (stereo not shown) [AG02-RA1, 3,7,11,15(17)-cembratetraene-16,2:19,6-diolide-3484-37-5(3E,12E)-3,12-dimethyl-8-methylene-6,18-dioxa-tricyclo[14.2.1.0.5,9]nonadeca-3,12,16(19)-triene-7,17-dione], in experiment [1], the “AVERAGE VALUES (neutrophil cell density)” value is on record as 133 cells*10^3/ml and the “INHIBITION RATE (neutrophils)” value is on record as 63%. Moreover, in experiment [2], the “AVERAGE VALUES (normalized leukocyte cell density)” value stood at 1609 cells*10^3/ml and the “INHIBITION RATE (leukocytes)” value is −100%.
On to `CC(=O)OCC=Cc1ccc(OC(C)=O)cc1` [AG04-RA1, 4-(3-acetoxy-propenyl)-phenyl acetate], for which the “inhibition rate of interleukin-6 secretion amount” value in the experiment on interleukin-6 (mIL-6) is recorded as greater than 50%. Moreover, in experiment [1], the “AVERAGE VALUES (neutrophil cell density)” value stood at 205 cells*10^3/ml and the “INHIBITION RATE (neutrophils)” value came to 43%. Besides, in experiment [2], the “AVERAGE VALUES (normalized leukocyte cell density)” value amounted to 670 cells*10^3/ml and the “INHIBITION RATE (leukocytes)” value is 17%. Besides, the “inhibition rate of interleukin-1β secretion amount” value with interleukin-1β (mIL-1β) is given as greater than 50%.
